Data from ChEMBL document CHEMBL3351387, “Bioisosteric replacement of an acylureido moiety attached to an indolin-2-one scaffold with a malonamido or a 2/4-pyridinoylamido moiety produces a selectively potent Aurora-B inhibitor” (Eur J Med Chem, 2014).
pIC50: −log10 of the molar value.

Assays:
A549 [1] = assay: Cytotoxicity against human A549 cells by SRB assay; format: cell-based
HepG2 = assay: Cytotoxicity against human HepG2 cells by SRB assay; format: cell-based
Cytochrome P450 2C9 = Cytochrome P450 2C9 (Homo sapiens, UniProt P11712); assay: Inhibition of CYP2C9 (unknown origin) using Vivid OOMR substrate; format: ADME
Cytochrome P450 2C19 = Cytochrome P450 2C19 (Homo sapiens, UniProt P33261); assay: Inhibition of CYP2C19 (unknown origin) using 3-Cyano-7-ethoxycoumarin substrate; format: ADME
Cytochrome P450 3A4 = Cytochrome P450 3A4 (Homo sapiens, UniProt P08684); assay: Inhibition of CYP3A4 (unknown origin) using Vivid OOMR substrate; format: ADME
[2] = Half life in rat plasma at 2 mg/kg, iv after 24 hrs by LC-ESI-MS/MS method; format: ADME, organism-based; parameters: dose 2 mg/kg, route intravenous
[3] = Clearance in rat at 2 mg/kg, iv after 24 hrs by LC-ESI-MS/MS method; format: ADME, organism-based; parameters: dose 2 mg/kg, route intravenous; settings: in vivo
[4] = Volume of distribution at steady state in rat at 2 mg/kg, iv after 24 hrs by LC-ESI-MS/MS method; format: ADME, organism-based; parameters: dose 2 mg/kg, route intravenous; settings: in vivo, read-out: Vdss
Rattus norvegicus = assay: AUC (0 to 24 hrs) in rat plasma at 2 mg/kg, iv after 24 hrs by LC-ESI-MS/MS method; format: ADME, organism-based; parameters: time < 24 hr, dose 2 mg/kg, route intravenous; settings: in vivo
[5] = Antitumor activity against human HuH7 cells xenografted in po dosed SCID mouse assessed as inhibition of tumor growth at 2.5 mg/kg, iv qd for 14 days measured on day 9; format: functional; settings: Huh-7
[6] = Antitumor activity against human HuH7 cells xenografted in po dosed SCID mouse assessed as inhibition of tumor growth at 2.5 mg/kg, iv qd measured on day 14; format: functional; settings: Huh-7, 336 h
Vero = assay: Cytotoxicity against african green monkey Vero cells; format: cell-based; settings: chlorocebus sabaeus
[7] = Plasma concentration rat at 2 mg/kg, iv after 5 mins by LC-ESI-MS/MS method; format: ADME, organism-based; parameters: dose 2 mg/kg, route intravenous
[8] = Plasma concentration rat at 2 mg/kg, iv after 24 hrs by LC-ESI-MS/MS method; format: ADME, organism-based; parameters: dose 2 mg/kg, route intravenous
A549 [9] = assay: Anti-invasive activity against human A549 cells assessed as inhibition of cell invasion by transwell invasion assay
A549 [10] = assay: Antimigratory activity against human A549 cells assessed as inhibition of cell migration after 8 to 16 hrs by scratch wound model assay
[11] = Antitumor activity against human HuH7 cells xenografted in iv dosed SCID mouse assessed as inhibition of tumor growth at 5 mg/kg, iv qd for 14 days measured on day 9; settings: Huh-7, iv

Sequence of Cytochrome P450 2C19 (P33261 whole entry): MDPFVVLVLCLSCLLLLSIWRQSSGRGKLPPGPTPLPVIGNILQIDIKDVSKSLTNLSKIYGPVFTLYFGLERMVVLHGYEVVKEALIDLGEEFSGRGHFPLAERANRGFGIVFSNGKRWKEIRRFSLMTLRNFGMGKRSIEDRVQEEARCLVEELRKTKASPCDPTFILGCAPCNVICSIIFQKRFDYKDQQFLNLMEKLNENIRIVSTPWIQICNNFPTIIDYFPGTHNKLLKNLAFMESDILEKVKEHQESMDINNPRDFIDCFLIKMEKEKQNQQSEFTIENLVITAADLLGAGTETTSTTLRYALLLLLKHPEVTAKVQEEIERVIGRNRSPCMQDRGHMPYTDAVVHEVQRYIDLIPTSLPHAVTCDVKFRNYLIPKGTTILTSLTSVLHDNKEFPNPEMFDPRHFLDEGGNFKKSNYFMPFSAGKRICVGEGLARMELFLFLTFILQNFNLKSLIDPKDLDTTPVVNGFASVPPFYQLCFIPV
Sequence of Cytochrome P450 2C9 (P11712 whole entry): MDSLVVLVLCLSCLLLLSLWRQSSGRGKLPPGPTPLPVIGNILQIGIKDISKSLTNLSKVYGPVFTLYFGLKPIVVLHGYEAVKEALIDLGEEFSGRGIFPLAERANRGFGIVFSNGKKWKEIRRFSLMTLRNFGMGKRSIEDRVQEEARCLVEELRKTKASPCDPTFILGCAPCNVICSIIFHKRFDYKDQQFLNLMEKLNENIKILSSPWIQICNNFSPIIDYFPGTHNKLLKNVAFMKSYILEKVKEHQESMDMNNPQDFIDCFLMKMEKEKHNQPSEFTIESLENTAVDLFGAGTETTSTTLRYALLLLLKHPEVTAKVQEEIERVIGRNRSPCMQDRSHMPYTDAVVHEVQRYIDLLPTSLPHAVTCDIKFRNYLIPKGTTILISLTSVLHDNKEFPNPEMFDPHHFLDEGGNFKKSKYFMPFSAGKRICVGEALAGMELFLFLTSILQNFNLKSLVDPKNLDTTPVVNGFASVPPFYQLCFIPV
Sequence of Cytochrome P450 3A4 (P08684 whole entry): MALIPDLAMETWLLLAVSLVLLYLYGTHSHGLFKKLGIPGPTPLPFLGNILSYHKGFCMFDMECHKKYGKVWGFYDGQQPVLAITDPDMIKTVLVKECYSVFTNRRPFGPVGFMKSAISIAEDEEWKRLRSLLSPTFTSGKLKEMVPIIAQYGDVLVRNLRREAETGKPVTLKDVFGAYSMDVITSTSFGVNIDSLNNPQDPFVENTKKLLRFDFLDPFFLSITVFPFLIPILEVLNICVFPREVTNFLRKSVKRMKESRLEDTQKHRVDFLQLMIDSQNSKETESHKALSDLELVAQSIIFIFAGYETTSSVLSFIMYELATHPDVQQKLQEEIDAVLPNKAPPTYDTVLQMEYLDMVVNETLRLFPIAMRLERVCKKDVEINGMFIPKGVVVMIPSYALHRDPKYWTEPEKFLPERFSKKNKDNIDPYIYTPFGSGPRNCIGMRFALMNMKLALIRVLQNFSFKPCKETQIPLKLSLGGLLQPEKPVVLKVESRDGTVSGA

pIC50 (Cytochrome P450 2C9): 7.40
pIC50 (Cytochrome P450 2C19): 5.46
pIC50 (Cytochrome P450 3A4): < 5.00
half-life [2]: 11.8 h
clearance [3]: 9.41 mL/min/kg
Vd [4]: 9.34 L/kg
AUC (Rattus norvegicus): 3660 ng·h/mL
concentration at 5 min [7]: 4790 ng/mL
concentration at 24 h [8]: 10 ng/mL
pIC50 (A549 [9]): 5.49
pIC50 (A549 [10]): 5.39
SMILES: O=C1Nc2cc(NC(=O)c3c[nH]cc(-c4ccccc4F)c3=O)ccc2/C1=C/c1ccc[nH]1
pIC50 (A549 [1]): 6.30
pIC50 (HepG2): 6.22
inhibition in vivo at 2.5 mg/kg [5]: 56%
inhibition in vivo at 2.5 mg/kg [6]: 38%
Activity (Vero): Non-toxic
inhibition in vivo at 5 mg/kg [11]: 61%
